# Structures can show the parent of a compound that is named as a salt.
# Legend:
# Rev-Erb alpha = target: T1, Rev-Erb alpha (Homo sapiens, UniProt P20393); test: M2H (mammalian two-hybrid) cellular activation assay of Rev-Erb alpha; type: cell-based; conditions: M2H assay, HEK293 cells; for EC50: Gal4-Rev-Erb alpha / VP16-NCoR, luciferase reporter; for Emax: relative to DMSO, at the tested dose, read-out: TOP activation
# T1 sequence (P20393 284-614 limits assumed): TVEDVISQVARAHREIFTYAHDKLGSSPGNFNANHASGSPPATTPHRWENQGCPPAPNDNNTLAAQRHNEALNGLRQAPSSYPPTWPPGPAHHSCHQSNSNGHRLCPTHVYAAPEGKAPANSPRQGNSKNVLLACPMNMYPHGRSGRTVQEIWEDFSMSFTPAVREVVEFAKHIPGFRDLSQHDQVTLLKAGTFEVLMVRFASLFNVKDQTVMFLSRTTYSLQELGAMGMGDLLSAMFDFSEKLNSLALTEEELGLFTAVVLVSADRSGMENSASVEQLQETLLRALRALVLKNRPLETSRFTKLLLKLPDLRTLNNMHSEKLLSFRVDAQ
# Summary of the method: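 Six-point dose-response, 18 h, 37 °C, serum-free, in HEK293 cells carrying a Gal4-RE luciferase reporter with Gal4-Rev-Erb alpha or beta plus VP16-NCoR (corepressor interaction readout). EC50 and TOP activation (%) derived from luminescence across four experiments.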
SMILES,melting point [°C],EC50 (Rev-Erb alpha) [nM],Emax (Rev-Erb alpha) [%]
"Clc1nnc2ccc(Oc3cc(CN4CCCCC4)ccc3-c3ccccc3)nn12 [Cpd.4-183, 3-chloro-6-(4-piperidin-1-ylmethylbiphenyl-2-yloxy)-[1,2,4]triazolo[4,3-b]pyridazine]",163 to 164,1000 to 6000,
"COc1ncccc1-c1ccc(C(F)(F)F)cc1Oc1nn2c(Cl)nnc2cc1C [Cpd.5-24, 3-chloro-7-methyl-6-((2-(2-methoxypyridin-3-yl))-5-(trifluoromethyl)phenoxy)-[1,2,4]triazolo[4,3-b]pyridazine]",176 to 178,1000 to 6000,
"Clc1cccc(-c2cccc(Oc3ccc4nnc(Cl)n4n3)c2)c1 [Cpd.3-13, 3-chloro-6-(3′-chlorobiphenyl-3-yloxy)-[1,2,4]triazolo[4,3-b]pyridazine]",77.5 to 123.8,100 to 1000,
"COc1cccc(-c2cccc(Oc3ccc4nnc(Cl)n4n3)c2)c1 [Cpd.3-14, 3-chloro-6-(3′-methoxybiphenyl-3-yloxy)-[1,2,4]triazolo[4,3-b]pyridazine]",91.46,1000 to 6000,
"NC(=O)c1cccc(-c2ccc(C(F)(F)F)cc2Oc2ccc3nnc(Cl)n3n2)c1 (as salt: sodium) [Cpd.4-72, 3-chloro-6-(4-trifluoromethyl-3′-aminocarbonyl-biphenyl-2-yloxy)-[1,2,4]triazolo[4,3-b]pyridazine]",217.7 to 220,,
"FC(F)(F)c1ccc(-c2ccccc2)c(Oc2ccc3nnc(C(F)(F)F)n3n2)c1 [Cpd.4-38, 6-(4-trifluoromethyl-biphenyl-2-yloxy)-3-(trifluoromethyl)-[1,2,4]triazolo[4,3-b]pyridazine]",150,100 to 1000,
"Cc1cc2nnc(Cl)n2nc1Oc1ccc(Cl)cc1-c1cncnc1 [Cpd.5-59, 3-chloro-6-(4-chloro-2-(pyrimidin-5-yl)phenoxy)-7-methyl-[1,2,4]triazolo[4,3-b]pyridazine]",224 to 226,> 6000,> 130
"FC(F)(F)c1ccc(-c2ccccc2)c(Oc2cc(-c3ccccc3)c3nnc(Cl)n3n2)c1 [Cpd.5-4, 3-chloro-8-phenyl-6-(4-trifluoromethyl-biphenyl-2-yloxy)-[1,2,4]triazolo[4,3-b]pyridazine]",162 to 164,,
"FC(F)(F)c1ccc(-c2nccs2)c(Oc2ccc3nnc(Cl)n3n2)c1 (as salt: potassium) [Cpd.4-105, 3-chloro-6-(2-(thiazol-2-yl)-5-(trifluoromethyl)phenoxy)-[1,2,4]triazolo[4,3-b]pyridazine]",171 to 173,,
"CC(NC1CCCCC1)c1ccc(Oc2ccc3nnc(Cl)n3n2)c(-c2ccccc2)c1 (stereo not shown) [Cpd.4-167, 3-chloro-6-(5-(methyl-cyclohexylaminomethyl)biphenyl-2-yloxy)-[1,2,4]triazolo[4,3-b]pyridazine]",50.6,,
"CC(NCCc1ccccc1)c1ccc(Oc2ccc3nnc(Cl)n3n2)c(-c2ccccc2)c1 (stereo not shown) [Cpd.4-165, 3-chloro-6-(5-(methylphenethylaminomethyl)biphenyl-2-yloxy)-[1,2,4]triazolo[4,3-b]pyridazine]",114.3 to 117,,
"OCc1ccc(Oc2ccc3nnc(Cl)n3n2)c(-c2ccccc2)c1 (as salt: sodium) [Cpd.4-66, 3-chloro-6-(5-hydroxymethyl-biphenyl-2-yloxy)-[1,2,4]triazolo[4,3-b]pyridazine]",72,,
"O=C(O)c1ccc(Oc2ccc3nnc(Cl)n3n2)c(-c2ccccc2)c1 [Cpd.4-59, 3-chloro-6-(5-hydroxycarbonyl-biphenyl-2-yloxy)-[1,2,4]triazolo[4,3-b]pyridazine]",266.9 to 267.7,,
"CN1CCN(Cc2ccc(C(F)(F)F)cc2Oc2ccc3nnc(Cl)n3n2)CC1 [Cpd.4-124, 3-chloro-6-(2-((4-methylpiperazin-1-yl)methyl)-5-(trifluoromethyl)phenoxy)-[1,2,4]triazolo[4,3-b]pyridazine]",,> 6000,> 130
"FC(F)(F)c1ccc(-c2cscn2)c(Oc2ccc3nnc(Cl)n3n2)c1 (as salt: potassium) [Cpd.4-106, 3-chloro-6-(2-(thiazol-4-yl)-5-(trifluoromethyl)phenoxy)-[1,2,4]triazolo[4,3-b]pyridazine]",191 to 192,,
"COc1cccc(-c2cc(F)ccc2Oc2ccc3nnc(Cl)n3n2)c1 (as salt: sodium) [Cpd.4-76, 3-chloro-6-(5-fluoro-3′ methoxy-biphenyl-2-yloxy)-[1,2,4]triazolo[4,3-b]pyridazine]",91.3 to 93.4,,
"Fc1ccc(-c2ccc(C(F)(F)F)cc2Oc2ccc3nnc(Cl)n3n2)cn1 [Cpd.4-87, 3-chloro-6-(2-(6-fluoropyridin-3-yl)-5-(trifluoromethyl)phenoxy)-[1,2,4]triazolo[4,3-b]pyridazine]",,1000 to 6000,
"COc1ccc(-c2cccc(F)c2)c(Oc2ccc3nnc(Cl)n3n2)c1 [Cpd.4-112, 3-chloro-6-[(3′-fluoro-4-methoxybiphenyl-2-yl)oxy]-[1,2,4]triazolo[4,3-b]pyridazine]",,< 100,
"CC(=O)OCc1ccc(-c2ccccc2)c(Oc2ccc3nnc(Cl)n3n2)c1 [Cpd.4-172, 3-chloro-6-(4-methylcarbonyloxymethylbiphenyl-2-yloxy)-[1,2,4]triazolo[4,3-b]pyridazine]",,100 to 1000,

# More lines, now with the values ahead:
melting point [°C],EC50 (Rev-Erb alpha) [nM],Emax (Rev-Erb alpha) [%],SMILES
213 to 215,100 to 1000,,"Fc1ccc2c(c1)c(Oc1cc(C(F)(F)F)ccc1-c1ccccc1)nn1c(Cl)nnc21 [Cpd.5-3, 3-chloro-6-(4-trifluoromethyl-biphenyl-2-yloxy)-8-fluoro-[1,2,4]triazolo[3,4-a]phthalazine]"
185.8,100 to 1000,,"FC(F)(F)c1ccc(-c2ccccc2Oc2ccc3nnc(Cl)n3n2)cc1 [Cpd.4-24, 6-(4′-trifluoromethyl-biphenyl-2-yloxy)-3-chloro-[1,2,4]triazolo[4,3-b]pyridazine]"
60 to 68,100 to 1000,,"COc1ncc(F)cc1-c1ccc(C(F)(F)F)cc1Oc1ccc2nnc(Cl)n2n1 [Cpd.4-131, 3-chloro-6-((2-(2-methoxy-5-fluoropyridin-3-yl))-5-(trifluoromethyl)phenoxy)-[1,2,4]triazolo[4,3-b]pyridazine]"
130 to 132,100 to 1000,,"COc1ncc(F)cc1-c1ccc(C(F)(F)F)cc1Oc1cc(C)c2nnc(Cl)n2n1 [Cpd.4-193, 3-chloro-8-methyl-6-((2-(2-methoxy-5-fluoropyridin-3-yl))-5-(trifluoromethyl)-phenoxy)-[1,2,4]triazolo[4,3-b]pyridazine]"
82.5,1000 to 6000,,"COc1ccccc1-c1cccc(Oc2ccc3nnc(Cl)n3n2)c1 [Cpd.3-8, 6-(2′-methoxy-biphenyl-3-yloxy)-3-chloro-[1,2,4]triazolo[4,3-b]pyridazine]"
166.9 to 173.4,100 to 1000,,"Cc1ccc(-c2ccccc2Oc2ccc3nnc(Cl)n3n2)cc1 [Cpd.4-23, 6-(4′-methyl-biphenyl-2-yloxy)-3-chloro-[1,2,4]triazolo[4,3-b]pyridazine]"
75.9 to 78.8,,,"COC(=O)c1ccc(Oc2ccc3nnc(Cl)n3n2)c(-c2ccccc2)c1 (as salt: sodium) [Cpd.4-69, 3-chloro-6-(5-methyloxycarbonyl-biphenyl-2-yloxy)-[1,2,4]triazolo[4,3-b]pyridazine]"
164.6 to 167.7,,,"NCc1ccc(-c2ccccc2)c(Oc2ccc3nnc(Cl)n3n2)c1 (as salt: sodium) [Cpd.4-65, 3-chloro-6-(4-aminomethyl-biphenyl-2-yloxy)-[1,2,4]triazolo[4,3-b]pyridazine]"
60.8 to 62.5,,,"CNC(Cc1ccccc1)c1ccc(Oc2ccc3nnc(Cl)n3n2)c(-c2ccccc2)c1 (stereo not shown) [Cpd.4-158, 3-chloro-6-(5-(benzylmethylaminomethyl)biphenyl-2-yloxy)-[1,2,4]triazolo[4,3-b]pyridazine]"
130 to 133,,,"FC(F)(F)c1ccc(-c2ccccc2)c(Oc2nn3c(Cl)nnc3cc2C2CC2)c1 [Cpd.5-14, 3-chloro-7-cyclopropyl-6-(4-trifluoromethyl-biphenyl-2-yloxy)-[1,2,4]triazolo[4,3-b]pyridazine]"
,100 to 1000,,"Clc1nnc2ccc(Oc3ccccc3-c3ccsc3)nn12 [Cpd.4-108, 3-chloro-6-(2-(thiophen-3-yl)phenoxy)-[1,2,4]triazolo[4,3-b]pyridazine]"
,100 to 1000,,"Cc1ncccc1-c1ccc(C(F)(F)F)cc1Oc1ccc2nnc(Cl)n2n1 [Cpd.4-123, 3-chloro-6-(2-(2-methylpyridin-3-yl)-5-(trifluoromethyl)phenoxy)-[1,2,4]triazolo[4,3-b]pyridazine]"
,> 6000,> 130,"CCCOc1ccc(-c2ccc(C(F)(F)F)cc2Oc2ccc3nnc(Cl)n3n2)cn1 [Cpd.4-92, 3-chloro-6-(2-(6-propoxypyridin-3-yl)-5-(trifluoromethyl)phenoxy)-[1,2,4]triazolo[4,3-b]pyridazine hydrochloride]"
,> 6000,> 130,"Cn1cc(-c2ccc(C(F)(F)F)cc2Oc2ccc3nnc(Cl)n3n2)ccc1=O [Cpd.4-86, 5-(2-(3-chloro-[1,2,4]triazolo[4,3-b]pyridazin-6-yloxy)-4-(trifluoromethyl)phenyl)-1-methylpyridin-2(1H)-one]"
